Experimental data: publication PMC9386805 (ACS Omega, 2022)
Values after ≈ are worked out from the molar mass of the structure shown.

What was measured:
Test in all cases: MIC by microdilution
Format in all cases: cell-based
[1] = test system: E. coli (Migula) Castellani and Chalmers (ATCC 25922); conditions: Escherichia coli, ATCC25922, read-out: MIC, EC
[2] = test system: S. aureus subsp. aureus Rosenbach (ATCC 25923); conditions: Staphylococcus aureus, ATCC25923, read-out: MIC, SA
[3] = test system: P. aeruginosa (Schroeter) Migula (ATCC 27853); conditions: Pseudomonas aeruginosa, ATCC27853, read-out: MIC, PA
[4] = test system: Salmonella enterica subsp. enterica serovar Typhimurium (ATCC 14028); conditions: ATCC14028|TYPHIMURIUM, read-out: MIC, ST

MIC [1]: 8 mg/L (≈ 16.8 µM)
MIC [2]: 4 mg/L (≈ 8.38 µM)
MIC [3]: 4 mg/L (≈ 8.38 µM)
MIC [4]: 2 mg/L (≈ 4.19 µM)
Structure (SMILES): CNC(C)C1CCC(N)C(OC2C(N)CC(N)C(OC3OCC(C)(O)C(NC)C3O)C2O)O1 (stereo not shown) [gentamicin]
